The results in this text go back to patent publication US8765742B2, “Crystalline methylthioninium chloride hydrates” (Wista Laboratories Ltd., priority 2009, dated 2014).

A short description of the data set: Thermodynamic stability of the crystalline hydrate form at room temperature as a function of relative humidity. The class given is physicochemical. To be noted: over the whole range of relative humidity.

On to `CN(C)c1ccc2nc3ccc(=[N+](C)C)cc-3sc2c1` [Form B, methylthioninium chloride dihydrate], for which the “thermodynamic stability at room temperature” value is recorded as “thermodynamically metastable”.
